Data as given in a melting point compilation (Tetko et al.; mined from patent text by program, amines drawn as free bases though some values may be those of a salt).

Structure (SMILES)	melting point [°C]
CC1=C(C(=O)OCCN(C)Cc2ccccc2)C(c2ccccc2C#N)c2c(ccnc2OC(C)C)N1 (configuration not stated)	120 to 122
CCOC(=O)C1=C(C)NC(C(OCC)OCC)=C(C(=O)OCC)C1c1cc([N+](=O)[O-])ccc1Cl (configuration not stated)	117 to 118
Nc1sc2c(c1C(=O)c1ccc(OCc3ccccc3)cc1)CCN(C(=O)OCc1ccccc1)C2	151 to 152
CCc1oncc1C(=O)Nc1ccc([N+](=O)[O-])cc1	139 to 141
O=C(NC1CCN(CCc2ccncc2)CC1)c1ccccc1	193 to 195
CCCCCCCCCCCCCCCCCC1OCC(COC(O)CCCCC=O)O1 (configuration not stated)	53.6 to 55.7
CC(C)n1cccc1C(N)=S	97.5 to 100
CS(=O)c1ccc(OCCCOc2cc(OCCCCCCCCCCCCOc3ccccc3)cc(N(CC(=O)O)CC(=O)O)c2)cc1 (configuration not stated)	106 to 108
N#Cc1cncc(I)c1O	> 245
O=C(N[C@@H]1CN(C2CCCCC2)C[C@H]1O)c1ccc(Cl)cc1 (relative stereo)	158 to 160
Cc1noc(-c2nc(-c3c(F)cccc3F)nn2C)c1Cl	94 to 97
CN1CCc2c(c3cc(Cl)ccc3n2CCC#N)C1	127 to 129
CCCCOc1ccc(CCCCCC(=O)O)cc1	39 to 40
Cc1ccc([N+](=O)[O-])c(Cl)c1C#N	106 to 107
Cc1ccc(S(=O)(=O)NN=C2CCCCCCC2)cc1	140 to 143
CCOC(=O)C1=C(C(OCC)OCC)NC(C)=C(C(=O)OCCCl)C1c1cccc([N+](=O)[O-])c1 (configuration not stated)	96 to 97
CCCCOCCOc1ccc(-c2ccc3c(c2)C=C(C(=O)Nc2ccc(CP4(=O)OCCCO4)cc2)CCS3(=O)=O)cc1	222 to 223
Cc1cc(CCCCCOc2ccc(C3=NCCO3)cc2C(F)F)on1	80 to 89
COC(=O)c1cnc(NC(C)C)nc1C	118 to 119
OCC1OC(n2c(Cl)nc3ccc(Br)cc32)C(O)C1O (configuration not stated)	152 to 153
NC(=O)c1cn(Cc2cccc(F)c2F)cn1	221 to 222
CC1(C)C(=O)C(C(=O)c2ccc(C(F)(F)F)nc2CBr)=C(Cl)C(C)(C)C1=O	94.5 to 95
COc1ccc(C(=O)Nc2c(Cl)cncc2Cl)c2c1OCC2CC(=O)NCc1ccc(F)cc1 (configuration not stated)	287
O=C(NNc1ccc([N+](=O)[O-])cc1)c1ccccc1	194 to 195
Oc1ccc([C@@H]2C[C@H]2c2ccc(O)cc2)cc1 (relative stereo)	190 to 191
CS(=O)(=O)c1ccc(C(CC2CCCC2)C(=O)O)cc1C(F)(F)F (configuration not stated)	100 to 102
CC(C)(C)[S@](=O)N1CCC[C@@H]1c1ccc(Cl)cc1	80

Structure (SMILES)	melting point [°C]
COC(=O)c1[nH]nc2c1CCc1cc(OC)c(Br)cc1-2	240 to 241
COc1ccc(O)c(C=O)c1OC	53 to 54
CCC1=C(O)C(C(C)=O)C(=O)OC1=O (configuration not stated)	212
Cc1noc(C)c1-c1ccc(F)cc1OC1SCC(O)C(O)C1O (configuration not stated)	192
Cc1onc2c1C(=O)N(C(C)(C)C)C2=O	48 to 50
Cc1c(NC(=O)CC(C)(C)C)cc2c(c1C)OCC2c1ccc(C(C)C)cc1 (configuration not stated)	177 to 178
Cc1c(C)c2c(c(C)c1NC(=O)NCCCO)C(c1ccc(C(C)C)cc1)CO2 (configuration not stated)	185 to 186
Cn1cc2c(nc(NC(=O)Nc3ccc(CC(=O)NCCCOCCOCCOCCCNC(=O)OC(C)(C)C)cc3)n3nc(-c4ccco4)nc23)n1	151 to 158
CS(=O)(=O)c1ccc(Oc2ccc(OC(F)(F)C(Cl)Cl)cc2)cc1	67 to 70
CN1CCC(Oc2noc3ccc(Cl)cc23)CC1	55 to 56
O=C(O)CCCCCCCOc1ccccc1O	60 to 64
CCn1ncc2cc3c(nc21)CCc1ccccc1C3(O)CCCN(C)C (configuration not stated)	100 to 102
c1ccc(CN2CCN(c3nc4nccc(-c5cccnc5)n4n3)CC2)cc1	149 to 150
Cc1cc2c(cc1-c1ccc(C#CC(=O)O)s1)C(C)(C)CCC2(C)C	138 to 140
N#CSc1nsnc1Cl	63 to 65
CC(C)(C)c1cc(CN)c(O)c(I)n1	162 to 165
COc1ccc(Cl)c(NC(=S)N(CCN2C(=O)c3ccccc3C2=O)OCc2ccccc2)c1Cl	175 to 176
CCCCS(=O)(=O)Nc1ccc(OCc2ccc3ccccc3n2)c(C#N)c1	158 to 160
CCC(CC)c1ccc(Cl)c2nc3n(c12)CCN3C(=O)c1c(C)cc(C)cc1C	234 to 236
CON(C)C(=O)CCc1oc(-n2ccnc2C)nc1-c1ccc(Cl)cc1	116 to 117
CCCCn1c(C(=O)c2cc(C)cc(CCC#N)c2)c(C(C)C)c(=O)[nH]c1=O	172 to 173
CCOC(=O)C(=CNc1cc(C)nn1CC)C(=O)OCC	60 to 67
Cn1cc(C2=C(c3cn(CCCSC4=NCCS4)c4ccccc34)C(=O)NC2=O)c2ccccc21	170 to 173
CCC1C(C)=NN=C(c2ccc(O)c(O)c2)c2cc(OC)c(O)cc21 (configuration not stated)	254 to 255
CS(=O)(=O)Nc1ccc([N+](=O)[O-])cc1SC1CCCCC1	140
CN1Cc2c(-c3noc(C4CC4)n3)ncn2-c2ccccc2C1=O	179 to 181

Continued, values first:

melting point [°C]	Structure (SMILES)
104 to 105	Cc1cc(COc2ccc(CC(=O)O)cc2Cl)ccc1OC(C)C
116 to 119	O=C(CCO)Cc1cccc(OCc2ccc3ccccc3n2)c1
157 to 160	O=C(O)CCn1ccc2cc(OCc3ccc4ccccc4n3)ccc21
98 to 99	CCCCc1nc(C(=O)O)c(C(=O)O)n1Cc1ccc(I)cc1
100 to 101	COc1cccc(CN2CCC3(CCc4c3n(C)c3ccccc43)CC2)c1
121 to 122	CC1(C)CC(c2ccc(F)cc2)=C(/C=C/[C@H]2C[C@H](O)CC(=O)O2)C(C)(C)C1 (relative stereo)
286	O=C(NCc1ccc2c(c1)-c1[nH]nc(-c3ccsc3)c1C2)c1cccnc1
119 to 124	COCn1cnc(N2CCc3ccccc3CC2)c(C#N)c1=O
148 to 150	O=C(Oc1ccc([N+](=O)[O-])cc1)c1ccnc(F)c1
107	CSCC(=O)c1ccc(O)c(O)c1
122 to 124	CCOC(=O)c1cc(-c2ccc(Cl)c(Cl)c2)nn1C
218 to 220	Cn1nc(-c2ccc(S(C)(=O)=O)cc2)c2ccccc2c1=O
38 to 40	Fc1ccc(-c2ccc(C(F)(F)F)cn2)cc1
144 to 145	CC(=O)c1ccc(-c2cc(C(C)(C)C)c(O)c(C(C)(C)C)c2)cc1
83 to 85	CN1C(=S)CSC=C1c1ccccc1
156 to 158	CCOC(=O)c1ccc2c(c1)Cc1ccc(C(=O)OCC)cc1O2
132 to 133	c1ccc(CN2CCOc3cccc4nc5c(c2c34)CCCC5)cc1
75 to 76	O=C(CCCc1ccccc1)c1cccc(OCc2ccc3ccccc3c2)c1
175 to 178	Cc1nc(NC(=O)c2cc(Cl)ccc2F)sc1C(=O)NCc1ccccc1
80 to 81	COC(=O)c1ccc(-c2ccccc2CBr)cc1
223	CC(=O)NCc1cn(-c2ccc(-n3cncn3)c(F)c2)nn1
154 to 155	COc1ccc(Br)c(-c2nc(=S)n(Cc3ccccc3)[nH]2)c1
178 to 181	CCOC(CC)=C1SC(=S)N(c2ccccc2)C1=O
138 to 140	NS(=O)(=O)c1ccc(N2N=C(C(F)(F)F)CC2c2c[nH]c3ccccc23)cc1 (configuration not stated)
166 to 168	O=C(NC(Cc1ccc(OCc2ccc(F)cc2)cc1)C(=O)O)c1cc2ccc(-c3ccc(Cl)cc3)cc2o1 (configuration not stated)

melting point [°C]	Structure (SMILES)
96 to 97	CON(C)C(=O)Nc1ccc(OCCc2cccc(C)n2)cc1
89 to 91	CC(=O)c1ccc(-c2ccc(Br)cc2)c(F)c1
78 to 80	CC(C)c1cccc2c1C(=O)N(COC(=O)c1c(Cl)ccc(O)c1Cl)S2(=O)=O
183 to 185	CCCCc1c(Cl)nc(N)nc1-c1ccccc1
129	Nc1cc(=O)n(Cc2cccc(F)c2)[nH]1
141	C#CCNc1c(-c2c(F)cc(F)cc2F)c(Cl)nc2ncnn12
235 to 238	NC(CN1C(=O)C2(COc3cc4c(cc32)OCO4)c2ccccc21)=NO (configuration not stated)
137 to 139	Cc1cccc2c(=O)[nH]c(C3CCN(CCO)C3)cc12 (single isomer, unassigned; (-))
271	CNc1nc(Nc2ccc(Cl)c(Cl)c2)ncc1N1CCNC1=O
125 to 130	Cn1c(C(F)(F)F)cc(=O)n(-c2ccc3snc(C4OCCCS4)c3c2)c1=O (configuration not stated)
192 to 194	Nc1cccc(-c2ccc(CCN3CC4C(C3)C4NC(=O)Nc3ccccc3)cc2)n1 (configuration not stated)
290 to 291	CC1(C)OC(=O)Nc2ccc(-c3cncc(C#N)c3)cc21
67 to 68	COC(=O)C(C)(C)CCCOc1cc(C)c(OCc2ccccc2)c(C)c1C
160 to 162	CC1(C)CC(=O)c2c(-c3ccccc3)cn(-c3ccccn3)c2C1
260	COCc1nc2c(C(F)(F)F)cccc2c(O)c1C(=O)Nc1nccs1
105 to 109	Cc1cc(CN2C(=O)C(C3=NS(=O)(=O)c4c(CN(C)S(C)(=O)=O)cccc43)=C(O)C2C(C)(C)C)ccc1F (configuration not stated)
182 to 185	CS(=O)(=O)c1ccc(-c2cnn(CC(F)(F)F)c(=O)c2Sc2ccc(F)cc2)cc1
248 to 251	Cc1nn(-c2ccccn2)c2ncc(C(=O)O)c(O)c12
242 to 244	O=C1CC(c2cccc(-c3nc(C(=O)NCCO)co3)c2)=Nc2ccc(-n3cccc3)cc2N1
214 to 218	CC(=O)NCc1nc2c(N)nc3ccccc3c2n1CC(C)C
117 to 122	O=C1CCC(C(=O)O)(c2ccc(F)cc2)CC1
210 to 212	CCOC(=O)c1cn(C)c2cc(F)c(F)cc2c1=O
255 to 257	CNS(=O)(=O)c1cn(C)c2cc(F)ccc2c1=O
147 to 149	CCNC(=O)c1c(Cl)ccc(N)c1[Si](C)(C)C
